Data published in publication PMC5908295 (Oncotarget, 2018).

Assays:
[1] = Pharmacokinetics after oral and intravenous administration; assay type: in vivo, dogs (Beagle); details: male, Beagle, plasma, Dog, Dose PO/IV 5/1 mg/kg
Description: therapeutic potential in acute myeloid leukemia
sheet for further calculations.
Three male Beagle dogs were administered

PIM3 = PIM3 (Homo sapiens, UniProt Q86V86); test: KINOMEscan Kd (DiscoverX); assay type: binding
[2] = tested on: MV-4-11 tumors (FLT3-ITD+); test: MV-4-11 subcutaneous xenograft, single agent; assay type: in vivo, SCID/beige mice; details: PO
Text: (§1) All animals were handled in strict accordance with good animal practice as defined by the relevant national and local animal welfare bodies. SCID and SCID/beige C.B-17 mice were provided by Harlan Laboratories or Charles River Laboratories, and were maintained in pathogen free conditions. For the xenograft experiments, age-matched (9-11 weeks old) females were used. 5×10^6 of MV-4-11 or MOLM-16 cells were suspended in a mixture (1:1, v:v) of PBS with Matrigel (BD Biosciences,) and injected subcutaneously (sc), in a total volume of 100 μL, above the groin on the right hind limb. For MOLM-13 and KG-1 cells, a mixture (3:1, v:v) of PBS and Matrigel HC (BD Bioscience,) was used to inject 5 × 10^6 of cell per mouse subcutaneously (sc), in a total volume of 100 μL. When tumors reached 100-130 mm^3, mice were randomized into uniform groups (6-9 mice per group) and subsequently administered the compound. […] At the end of the experiment, mice were anesthetized with isofluran and blood samples for total cell counts and biochemistry were obtained by retro-orbital bleeding. […] 5×10^6 cells suspended in a mixture (3:1, v:v) of PBS and Matrigel were injected as described above. When the tumor volume reached ~120 mm^3, mice were randomized into uniform groups (5 mice per group) and the compound then administered. […] Tumor volume was monitored every second day and calculated using the formula: TV = (a^2×b)/2, where “a” is the short axis in millimeters, and “b” is the long axis in millimeters. Body weight was assessed every day.

KG-1 = test: MTS viability assay, 72 h; details: Homo sapiens, KG-1, 72 h
Description: (§3) 15-25 ×10^3 of MV-4-11, MOLM-13, MOLM-14, MOLM-16, KG-1, Eol-1, SKM-1, PL-21, GDM-1, SKNO-1, RS4;11, Kasumi-3 and Kasumi-6 cells were seeded in 150 μL of culture medium onto individual wells in a 96 well plates, in triplicates. On the same day, 50 μL of medium containing tested inhibitor was added to the wells. Each compound was tested at 8 concentrations, in triplicates. As a negative control, the medium containing 0.1% DMSO was used. […] Staurosporine was used at 10 μM as a positive control. One the day of drug addition, basal signal from untreated cells was measured from in triplicate to determine time zero (T0). […] GI50 and LC50 values were extrapolated from a variable (four-parameter) dose-response curve fitted in GraphPad Prism.

[3] = Metabolic stability, liver microsomes; assay type: in vitro ADME; details: Mouse, 37 °C, read-out: Liver microsomes t1/2 (converted)
[4] = Metabolic stability, liver S9 fraction; assay type: in vitro ADME; details: Dog, 37 °C, read-out: Liver S9 fraction t1/2 (converted)
SIG-M5 = test: MTS viability assay, 72 h; details: Homo sapiens, SIG-M5, 72 h
Description: On the same day, 50 μL of medium containing tested inhibitor was added to the wells. Each compound was tested at 8 concentrations, in triplicates. As a negative control, the medium containing 0.1% DMSO was used. […] Staurosporine was used at 10 μM as a positive control. One the day of drug addition, basal signal from untreated cells was measured from in triplicate to determine time zero (T0). […] GI50 and LC50 values were extrapolated from a variable (four-parameter) dose-response curve fitted in GraphPad Prism.

MOLM-14 = test: MTS viability assay, 72 h; details: Homo sapiens, MOLM-14, 72 h
Description: as §3

KASUMI-6 = test: MTS viability assay, 72 h; details: 72 h
Description: as §3

FLT3 (D835H) = FLT3 (D835H) (Homo sapiens, UniProt P36888, D835H); test: KINOMEscan Kd, specific screen against FLT3 mutants; assay type: binding
Description: (§2) Dissociation constants (Kd) and inhibition levels of FLT3 mutants were measured at DiscoverX using the KINOMEscan^TM Profiling Service (KdELECT).

FLT3 (ITD) = FLT3 (ITD) (Homo sapiens, UniProt P36888, ITD); test: as above; assay type: binding
Description: as §2

FLT3 (ITD, F691L) = FLT3 (ITD, F691L) (Homo sapiens, UniProt P36888, F691L/ITD); test: as above; assay type: binding
Description: as §2

FLT3 (ITD, D835V) = FLT3 (ITD, D835V) (Homo sapiens, UniProt P36888, D835V/ITD); test: as above; assay type: binding
Description: as §2

FLT3 (R834Q) = FLT3 (R834Q) (Homo sapiens, UniProt P36888, R834Q); test: as above; assay type: binding
Description: as §2

FLT3 (N841I) = FLT3 (N841I) (Homo sapiens, UniProt P36888, N841I); test: as above; assay type: binding
Description: as §2

FLT3 (D835V) = FLT3 (D835V) (Homo sapiens, UniProt P36888, D835V); test: as above; assay type: binding
Description: as §2

FLT3 (D835Y) = FLT3 (D835Y) (Homo sapiens, UniProt P36888, D835Y); test: as above; assay type: binding
Description: as §2

FLT3 (K663Q) = FLT3 (K663Q) (Homo sapiens, UniProt P36888, K663Q); test: as above; assay type: binding
Description: as §2

MOLM-13 = test: MTS viability assay, 72 h; details: Homo sapiens, MOLM-13, 72 h
Description: as §3

[5] = Metabolic stability, liver S9 fraction; assay type: in vitro ADME; details: Human, 37 °C, read-out: Liver S9 fraction t1/2 (converted)
[6] = Blood biochemistry in mice with MV-4-11 tumors; assay type: in vivo; details: treatment day 15
Text: as §1
Supplementary Table 9: Related to Figure 5C. […] The assessment of
was performed on treatment day 15.
AST – Aspartate aminotransferase, ALT – Alanine transaminase, ALP – alkaline phosphatase, UREA – blood urea nitrogen,
CREA – Creatinine, CK – Creatine kinase, TP- total protein; ALB – Albumin. […]

Which results are given for `CC(C)n1c(C2CCNCC2)nc2c([N+](=O)[O-])c(Br)c(Br)cc21` [SEL24-B489, 5,6-dibromo-4-nitro-2-(piperidin-4-yl)-1-(propan-2-yl)-1H-1,3-benzodiazole]?
Cmax ([1]; 5 mg/kg): 155 ng/mL; Tmax ([1]; 5 mg/kg): 1.75 h; bioavailability ([1]; 5 mg/kg, read-out: F (bioavailability)): 47%; AUC(0-t) [1]: 3080 ng·h/mL; half-life [1]: 17.6 h; Kd (PIM3): 3 nM; tumor growth inhibition (TGI) ([2]; MV-4-11, 50 mg/kg daily): 67%; tumor growth inhibition (TGI) ([2]; MV-4-11, 75 mg/kg daily): 74%; tumor growth inhibition (TGI) ([2]; MV-4-11, 100 mg/kg daily): 82%; GI50 (KG-1): 67 nM; CC50 (KG-1; read-out: LC50): 2440 nM; half-life at 1 µM [3]: 7.2 h; half-life at 1 µM [4]: 6.3 h; GI50 (SIG-M5): 806 nM; CC50 (SIG-M5; read-out: LC50): 3440 nM; GI50 (MOLM-14): 97 nM; CC50 (MOLM-14; read-out: LC50): > 10000 nM; GI50 (KASUMI-6): 17 nM; Kd (FLT3 (D835H)): 37 nM; Kd (FLT3 (ITD)): 12 nM; Kd (FLT3 (ITD, F691L)): 10 nM; Kd (FLT3 (ITD, D835V)): 2.8 nM; Kd (FLT3 (R834Q)): 3200 nM; Kd (FLT3 (N841I)): 150 nM; Kd (FLT3 (D835V)): 11 nM; Kd (FLT3 (D835Y)): 16 nM; Kd (FLT3 (K663Q)): 530 nM; GI50 (MOLM-13): 73 nM; CC50 (MOLM-13; read-out: LC50): 446 nM; half-life at 1 µM [5]: 9.9 h; ALB ([6]; SEL24-B489 25 mg/kg): 5.3 g/dL; ALP ([6]; SEL24-B489 25 mg/kg): 94.2 U/L; AST ([6]; SEL24-B489 25 mg/kg): 202.4 U/L; CK ([6]; SEL24-B489 25 mg/kg): 2076 U/L; CREA ([6]; SEL24-B489 25 mg/kg): 0.40 mg/dL; K ([6]; SEL24-B489 25 mg/kg): 5.3 mM; TP ([6]; SEL24-B489 25 mg/kg): 5.6 g/dL; UREA ([6]; SEL24-B489 25 mg/kg): 6.0 mmol/L; ALB ([6]; SEL24-B489 50 mg/kg): 4.4 g/dL; ALP ([6]; SEL24-B489 50 mg/kg): 97.2 U/L; ALT ([6]; SEL24-B489 50 mg/kg): 49.4 U/L; AST ([6]; SEL24-B489 50 mg/kg): 135.2 U/L; CK ([6]; SEL24-B489 50 mg/kg): 1206 U/L; CREA ([6]; SEL24-B489 50 mg/kg): 0.49 mg/dL; K ([6]; SEL24-B489 50 mg/kg): 5.3 mM; Na ([6]; SEL24-B489 50 mg/kg): 141 mM; TP ([6]; SEL24-B489 50 mg/kg): 5.1 g/dL; UREA ([6]; SEL24-B489 50 mg/kg): 6.6 mmol/L
